Assay results taken from patent publication US20250361486A1, “METHOD FOR CULTURING CELLS REQUIRING A SUPPLY OF IRON” (SAFI BIOTHERAPEUTICS INC., priority 2022, published 2025).

Experiments:
[1] = test system: cultured red blood cells; assay: Preservation yield of cultured red blood cells after 28 days in a preservation solution; format: cell-based; conditions: culture conducted with Trolox approximately 100 μM; red blood cells stored for 28 days in a preservation solution; 63% without Trolox
Experimental: (§1) Cultured red blood cell production was performed with and without the addition of Trolox during the perfusion bioreactor culture step of the process described below.
(§2) Briefly, the cells cultured according to the invention are total nucleated cells collected by cytapheresis from volunteer donors previously mobilised with G-CSF.
(§3) A first step of the process according to the invention is carried out over 7 days (from D1 to D7) in fed-batch at a temperature of 37° C., under an atmosphere of 5% CO2 and in a culture medium adapted from that described by Giarratana et al. (2011) “Proof of principle for transfusion of in vitro-generated red blood cells”, Blood 118:5071-5079 for the first step of the expansion procedure described in the article (page 5072). Halfway through this step, fresh culture medium is added to the culture so as to dilute the culture by half (the same volume of culture medium is added as the volume initially present). […]
Furthermore, the red blood cells from the above cultures were stored for 28 days in a preservation solution and the preservation efficiency at the end of the preservation period was determined [100×(final red blood cell count/mL)/(initial red blood cell count/mL].

[2] = test system: cultured red blood cells; assay: Cell losses at end of red blood cell perfusion culture; format: cell-based; conditions: Trolox approximately 100 μM in culture medium, perfusion bioreactor step D7 to D22; average of 6 cultures; 13% loss without Trolox
Experimental: as §1, §2, §3
Fifteen cultures were performed (9 without Trolox and 6 with Trolox) and cell losses were measured at the end of the culture, defined as the % decrease in cell concentration between the peak cell concentration and the day the culture was stopped (2 to 3 days later).

Cc1c(C)c2c(c(C)c1O)CCC(C)(C(=O)O)O2 (centres unmarked) [Trolox, 3,4-dihydro-6-hydroxy-2,5,7,8-tetramethyl-2H-I-benzopyran-2-carboxylic acid]
average conservation yield [100×(final red blood cell count/mL)/(initial red blood cell count/mL)] [1]: 77% | cell losses at the end of culture (% decrease in cell concentration between peak cell concentration and day culture was stopped) [2]: 6%
